Measurements reported in US20100266567A1, “USE OF URATE OXIDASE FOR THE TREATMENT OR PROPHYLAXIS OF DISORDERS OR INDIRECT SEQUELAE OF THE HEART CAUSED BY ISCHEMIC OR REPERFUSION EVENTS” (sanofi-aventis, priority 2007, published 2010).
Blank lines part the entries; values can stand above or below the molecule they belong to.

Key:
isolated rat hearts = assay: Isolated working rat heart: coronary flow and contractility
Source text: As biological materials the isolated hearts of male Wistar rats were used which were purchased from our Laboratory Animal Science and Welfare (LASW). The heart function (coronary flow and contractility) was investigated on the “Isolated Working Heart” model as previously described (Itter G et al., Laboratory Animals (2005) 39; 178-193). The hearts were first perfused according to Langendorff's method with an oxygenated (95% O2, 5% CO2) noncirculating Krebs-Henseleit solution of the following compositions (mmol/L): NaCl, 118; KCl, 4.7; CaCl2, 2.5; MgSO4, 1.6; NaHCO3, 24.9; KH2PO4, 1.2; glucose, 5.5; Na-pyruvate, 2.0. A catheter placed into the pulmonary artery drained the coronary effluent perfusate that was collected for determination of coronary flow and venous PO2 measurements. The left atrium was cannulated by an incision of the left auricle. After a 15-minute equilibration period at a fixed perfusion pressure of 60 mmHg, the heart was switched into the working mode at a fixed filling pressure of 11 mmHg. Coronary flow (CF) and pressure signals (dP/dtmax) were sampled at 500 Hz, averaged every 2 seconds.
High rasburicase concentrations were tested in combination with different uric acid concentrations on isolated working rat hearts for their possible adverse cardiac effects caused by the generated hydrogenperoxide (H2O2).

[1] = test system: isolated rat hearts with global ischemia and reperfusion; assay: Isolated working rat heart with global ischemia and reperfusion: coronary flow and contractility
Source text: Effects on Coronary Flow and Contractility of the Heart with Global Ischemia and Reperfusion: […]

[2] = UA 15 mg/L (Rasb 50 μg/mL where present), 1 min before ischemia
[3] = UA 15 mg/L (Rasb 50 μg/mL where present), 5 min before ischemia
[4] = UA 15 mg/L (Rasb 50 μg/mL where present), Global Ischemia
[5] = UA 15 mg/L (Rasb 50 μg/mL where present), Reperf. 5 min after Ischemia
[6] = UA 15 mg/L (Rasb 50 μg/mL where present), Reperf. 10 min after Ischemia
[7] = UA 15 mg/L (Rasb 50 μg/mL where present), Reperf. 15 min after Ischemia
[8] = UA 30 mg/L (Rasb 50 μg/mL where present), 1 min before ischemia, Table 5
[9] = UA 30 mg/L (Rasb 50 μg/mL where present), 5 min before ischemia, Table 5
[10] = UA 30 mg/L (Rasb 50 μg/mL where present), Global Ischemia, Table 5
[11] = UA 30 mg/L (Rasb 50 μg/mL where present), Reperf. 5 min after Ischemia, Table 5
[12] = UA 30 mg/L (Rasb 50 μg/mL where present), Reperf. 10 min after Ischemia, Table 5
[13] = UA 30 mg/L (Rasb 50 μg/mL where present), Reperf. 15 min after Ischemia, Table 5
[14] = addition of ascorbic acid 1 mM to Rasb 50 μg/mL + UA 30 mg/L

Molecule: OO [H2O2, hydrogenperoxide]
contractility (dP/dtmax) (isolated rat hearts; H2O2 10 μM, n = 4): 4774 ± 185 mmHg/s | coronary flow (CF) (isolated rat hearts; H2O2 10 μM, n = 4): 13.89 ± 0.55 mL/min | contractility (dP/dtmax) (isolated rat hearts; H2O2 30 μM, n = 4): 4469 ± 167 mmHg/s | coronary flow (CF) (isolated rat hearts; H2O2 30 μM, n = 4): 15.21 ± 1 mL/min | contractility (dP/dtmax) (isolated rat hearts; H2O2 100 μM, n = 4): 4573 ± 268 mmHg/s | coronary flow (CF) (isolated rat hearts; H2O2 100 μM, n = 4): 15.7 ± 1.3 mL/min | contractility (dP/dtmax) (isolated rat hearts; H2O2 200 μM, n = 4): 1698 ± 69 mmHg/s | coronary flow (CF) (isolated rat hearts; H2O2 200 μM, n = 4): 10.42 ± 0.3 mL/min | effect on coronary flow and contractility (in words) (isolated rat hearts; concentrations higher than 100 μM H2O2): strongly reduced

contractility (dP/dtmax) (isolated rat hearts; male, Wistar, rat, 6 mg/L): 3867 ± 327 mmHg/s | coronary flow (CF) (isolated rat hearts; male, Wistar, rat, 6 mg/L): 13.51 ± 1.02 mL/min
Molecule: O=c1[nH]c(=O)c2[nH]c(=O)[nH]c2[nH]1 [Uric Acid, Uric acid]
contractility (dP/dtmax) [1, 2]: 3608 ± 318 mmHg/s | coronary flow (CF) [1, 2]: 12.82 ± 0.75 mL/min | contractility (dP/dtmax) [1, 3]: 3600 ± 250 mmHg/s | coronary flow (CF) [1, 3]: 13.28 ± 0.7 mL/min | contractility (dP/dtmax) [1, 4]: 61 ± 1 mmHg/s | coronary flow (CF) [1, 4]: 0.38 ± 0.06 mL/min | contractility (dP/dtmax) [1, 5]: 1057 ± 496 mmHg/s | coronary flow (CF) [1, 5]: 4.47 ± 1.69 mL/min | contractility (dP/dtmax) [1, 6]: 1284 ± 667 mmHg/s | coronary flow (CF) [1, 6]: 4.71 ± 1.86 mL/min | contractility (dP/dtmax) [1, 7]: 1403 ± 736 mmHg/s | coronary flow (CF) [1, 7]: 4.73 ± 1.85 mL/min | contractility (dP/dtmax) [1, 8]: 4017 ± 437 mmHg/s | coronary flow (CF) [1, 8]: 13.11 ± 0.88 mL/min | contractility (dP/dtmax) [1, 9]: 4020 ± 350 mmHg/s | coronary flow (CF) [1, 9]: 13.33 ± 0.7 mL/min | contractility (dP/dtmax) [1, 10]: 59 ± 2 mmHg/s | coronary flow (CF) [1, 10]: 0.31 ± 0.02 mL/min | contractility (dP/dtmax) [1, 11]: 2224 ± 418 mmHg/s | coronary flow (CF) [1, 11]: 8.34 ± 1.88 mL/min | contractility (dP/dtmax) [1, 12]: 2898 ± 314 mmHg/s | coronary flow (CF) [1, 12]: 9.16 ± 1.29 mL/min | contractility (dP/dtmax) [1, 13]: 3192 ± 273 mmHg/s | coronary flow (CF) [1, 13]: 9.25 ± 0.63 mL/min

Molecule: O=C1O[C@H]([C@@H](O)CO)C(O)=C1O [ascorbic acid, Ascorbic acid]
contractility after ischemia/reperfusion (in words) [1, 14]: further improvement | coronary flow after ischemia/reperfusion (in words) [1, 14]: normalization

B1: rasburicase (protein, listed as Aspergillus flavus)
chain: SAVKAARYGKDNVRVYKVHKDEKTGVQTVYEMTVCVLLEGEIETSYTKADNSVIVATDSIKNTIYITAKQNPVTPPELFGSILGTHFIEKYNHIHAAHVNIVCHRWTRMDIDGKPHPHSFIRDSEEKRNVQVDVVEGKGIDIKSSLSGLTVLKSTNSQFWGFLRDEYTTLKETWDRILSTDVDATWQWKNFSGLQEVRSHVPKFDATWATAREVTLKTFAEDNSASVQATMYKMAEQILARQQLIETVEYSLPNKHYFEIDLSWHKGLQNTGKNAEVFAPQSDPNGLIKCTVGRSSLKSKL
modifications: homotetramer
notes: recombinant urate oxidase enzyme from genetically modified Saccharomyces cerevisiae with Aspergillus flavus cDNA
heart function (in words) ([1]; in the presence of uric acid, present prior and during ischemia/reperfusion): even improved | cardiodynamics after ischemia (in words) ([1]; ischemia/reperfusion experiments): even improved | recovery after ischemia/reperfusion (in words) ([1]; rasburicase 50 μg/mL in combination with uric acid 15 or 30 mg/L): concentration-dependently improved
